{
  "source": "ChEMBL document CHEMBL4680278",
  "about": "(J Med Chem, 2020)",
  "key": {"[1]": {"experiment": "Half-life in human at 10 mg/kg, po BID administered for 6 weeks measured weekly for 15 weeks by GC/MS analysis", "type": "ADME, organism-based", "conditions": "in vivo"}, "[2]": {"experiment": "Elimination half-life in human at 10 mg using oromucosal-spray formulation measured upto 24 hrs by LC-MS/MS assay", "type": "ADME", "conditions": "in vivo, read-out: beta t1/2 (converted)"}, "[3]": {"biological_target": "Delta-type opioid receptor (Homo sapiens, UniProt P41143)", "sequence (P41143 whole entry)": "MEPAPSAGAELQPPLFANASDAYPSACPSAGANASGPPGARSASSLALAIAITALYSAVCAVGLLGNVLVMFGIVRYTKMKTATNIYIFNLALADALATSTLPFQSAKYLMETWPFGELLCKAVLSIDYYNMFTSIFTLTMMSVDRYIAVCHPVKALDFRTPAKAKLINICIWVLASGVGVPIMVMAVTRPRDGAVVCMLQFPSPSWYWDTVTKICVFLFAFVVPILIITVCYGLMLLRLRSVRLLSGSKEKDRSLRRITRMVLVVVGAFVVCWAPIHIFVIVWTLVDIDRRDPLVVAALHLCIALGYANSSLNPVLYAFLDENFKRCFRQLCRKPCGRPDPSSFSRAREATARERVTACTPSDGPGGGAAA", "experiment": "Inhibition of delta-type opioid receptor receptor (unknown origin)"}, "[4]": {"experiment": "Drug degradation in simulated gastric fluid at 40 mg incubated for 2 hrs by UPLC-MS analysis", "type": "ADME", "conditions": "read-out: Drug degradation"}, "[5]": {"experiment": "Half-life in human at 20 mg via smoking measured after 0.05 to 72 hrs by gas chromatograph mass spectrometry", "type": "ADME", "conditions": "in vivo, inhaled or intranasal, time 0.05-72 hrs"}, "[6]": {"experiment": "Elimination half-life in human at 10 mg, po using PTL401 formulation measured upto 24 hrs by LC-MS/MS assay", "type": "ADME, organism-based", "conditions": "in vivo, read-out: beta t1/2 (converted)"}, "[7]": {"biological_target": "D(1A) dopamine receptor (Homo sapiens, UniProt P21728)", "sequence (P21728 whole entry)": "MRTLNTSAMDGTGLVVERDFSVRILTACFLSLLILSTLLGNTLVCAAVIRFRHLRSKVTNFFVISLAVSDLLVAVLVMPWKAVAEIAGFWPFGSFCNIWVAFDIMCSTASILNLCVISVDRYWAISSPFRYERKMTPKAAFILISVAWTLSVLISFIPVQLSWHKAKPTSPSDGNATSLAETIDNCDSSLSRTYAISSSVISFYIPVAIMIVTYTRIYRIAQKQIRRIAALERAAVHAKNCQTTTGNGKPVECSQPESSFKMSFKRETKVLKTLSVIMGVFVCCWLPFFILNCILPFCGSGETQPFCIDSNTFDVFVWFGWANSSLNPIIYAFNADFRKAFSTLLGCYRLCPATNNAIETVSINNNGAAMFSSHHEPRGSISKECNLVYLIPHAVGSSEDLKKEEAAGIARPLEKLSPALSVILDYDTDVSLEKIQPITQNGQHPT", "experiment": "Inhibition of D1 dopamine receptor (unknown origin)"}, "[8]": {"biological_target": "T1, Cytochrome P450 1B1 (Homo sapiens, UniProt Q16678)", "T1 sequence (Q16678 whole entry)": "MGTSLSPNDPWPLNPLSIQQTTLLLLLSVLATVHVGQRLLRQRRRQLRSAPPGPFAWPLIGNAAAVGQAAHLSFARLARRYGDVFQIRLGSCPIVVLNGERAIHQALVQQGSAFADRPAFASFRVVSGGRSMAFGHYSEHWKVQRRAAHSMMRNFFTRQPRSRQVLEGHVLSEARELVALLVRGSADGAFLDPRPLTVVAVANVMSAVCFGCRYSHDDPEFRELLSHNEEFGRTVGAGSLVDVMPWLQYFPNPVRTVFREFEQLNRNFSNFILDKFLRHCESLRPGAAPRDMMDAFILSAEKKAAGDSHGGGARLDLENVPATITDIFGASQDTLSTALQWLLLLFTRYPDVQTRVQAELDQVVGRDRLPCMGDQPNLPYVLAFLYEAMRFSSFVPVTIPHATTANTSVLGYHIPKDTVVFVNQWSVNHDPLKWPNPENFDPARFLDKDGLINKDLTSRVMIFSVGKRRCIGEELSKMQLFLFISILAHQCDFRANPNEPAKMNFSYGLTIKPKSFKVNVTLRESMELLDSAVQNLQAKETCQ", "experiment": "Competitive inhibition of human recombinant CYP1B1 using 7-Ethoxyresorufin as substrate by Lineweaver-Burk plot analysis", "type": "ADME", "conditions": "read-out: Ki(app)"}, "[9]": {"biological_target": "T2, Alpha-2C adrenergic receptor (Homo sapiens, UniProt P18825)", "T2 sequence (P18825 whole entry)": "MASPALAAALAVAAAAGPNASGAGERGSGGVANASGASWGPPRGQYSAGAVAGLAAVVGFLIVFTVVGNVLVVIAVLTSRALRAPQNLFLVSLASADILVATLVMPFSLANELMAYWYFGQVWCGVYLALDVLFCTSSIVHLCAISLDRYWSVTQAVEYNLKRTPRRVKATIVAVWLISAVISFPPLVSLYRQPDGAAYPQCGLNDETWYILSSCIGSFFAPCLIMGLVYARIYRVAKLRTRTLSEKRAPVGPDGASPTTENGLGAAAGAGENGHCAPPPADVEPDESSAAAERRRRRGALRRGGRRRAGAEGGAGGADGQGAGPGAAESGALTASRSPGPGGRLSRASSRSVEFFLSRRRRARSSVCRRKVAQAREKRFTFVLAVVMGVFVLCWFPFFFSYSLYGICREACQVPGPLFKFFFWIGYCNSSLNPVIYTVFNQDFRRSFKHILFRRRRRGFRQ", "experiment": "Inhibition of alpha2C receptor (unknown origin)"}, "[10]": {"experiment": "Critical aggregation concentration of compound by dynamic light scattering", "type": "physicochemical"}, "[11]": {"biological_target": "T3, Cytochrome P450 2A6 (Homo sapiens, UniProt P11509)", "T3 sequence (P11509 whole entry)": "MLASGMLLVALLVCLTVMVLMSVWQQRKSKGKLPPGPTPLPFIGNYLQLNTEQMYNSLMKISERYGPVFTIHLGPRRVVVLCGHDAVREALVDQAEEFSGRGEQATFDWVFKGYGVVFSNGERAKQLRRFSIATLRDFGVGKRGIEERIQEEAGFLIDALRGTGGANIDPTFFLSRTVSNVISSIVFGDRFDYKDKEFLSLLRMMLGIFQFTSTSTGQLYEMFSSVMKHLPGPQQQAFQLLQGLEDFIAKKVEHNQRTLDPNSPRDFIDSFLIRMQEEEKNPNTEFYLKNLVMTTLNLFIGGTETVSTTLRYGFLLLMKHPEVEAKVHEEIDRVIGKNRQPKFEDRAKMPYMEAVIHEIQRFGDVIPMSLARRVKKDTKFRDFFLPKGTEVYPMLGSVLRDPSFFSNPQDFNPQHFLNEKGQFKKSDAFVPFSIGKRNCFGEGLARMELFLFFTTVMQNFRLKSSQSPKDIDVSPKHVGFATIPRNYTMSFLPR", "experiment": "Non-competitive inhibition of human recombinant CYP2A6 expressed in baculovirus-infected insect cells using coumarin as substrate preincubated for 5 mins followed by NADPH-generating system addition by Lineweaver-Burk plot analysis", "type": "ADME"}, "[12]": {"biological_target": "Histamine H3 receptor (Homo sapiens, UniProt Q9Y5N1)", "sequence (Q9Y5N1 whole entry)": "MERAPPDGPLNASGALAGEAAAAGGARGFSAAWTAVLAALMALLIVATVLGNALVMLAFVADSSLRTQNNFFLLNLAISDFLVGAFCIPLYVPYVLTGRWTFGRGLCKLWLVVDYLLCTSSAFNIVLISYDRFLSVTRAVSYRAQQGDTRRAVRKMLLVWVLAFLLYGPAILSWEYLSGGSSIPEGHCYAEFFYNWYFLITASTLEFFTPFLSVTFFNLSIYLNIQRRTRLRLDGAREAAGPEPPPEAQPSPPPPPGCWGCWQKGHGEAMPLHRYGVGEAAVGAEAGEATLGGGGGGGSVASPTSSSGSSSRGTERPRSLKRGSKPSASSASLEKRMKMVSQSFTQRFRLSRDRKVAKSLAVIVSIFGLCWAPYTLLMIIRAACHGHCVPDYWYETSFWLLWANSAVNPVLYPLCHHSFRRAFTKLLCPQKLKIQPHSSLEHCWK", "experiment": "Inhibition of histamine H3 receptor (unknown origin)"}, "[13]": {"experiment": "Cmax in human plasma at 3.5 +/- 5.5 mg, INH", "type": "ADME, cell-free", "set-up": "dose 3.5 mg", "conditions": "inhaled or intranasal, 3.5 mg"}, "[14]": {"test_system": "Homo sapiens", "experiment": "Anti-seizure activity in Lennox-Gastaut patient assessed as median percent reduction in seizure frequency at 20 mg/kg administered daily for 14 weeks (reference value: 17%)", "type": "functional", "set-up": "scale not given: the % may be the effect or the level left"}, "[15]": {"experiment": "Toxicity in pig assessed as mean arterial blood pressure drop at 50 mg/kg, iv administered for 15 mins by pulse oximetry relative to baseline", "type": "organism-based, Sus scrofa", "conditions": "in vivo, 0.25 h"}, "[16]": {"experiment": "clinical", "conditions": "human, in vivo, other: aerosol spray, 20 mg", "description": "Elimination rate constant in human at 20 mg using aerosol spray measured for 6 weeks"}, "[17]": {"experiment": "Bioavailability in dog at 180 mg", "type": "ADME, organism-based, Canis lupus familiaris", "conditions": "in vivo"}, "[18]": {"experiment": "Cmax in human plasma at 14+/- 15 mg, po", "type": "ADME, cell-free", "set-up": "route oral, dose 14 mg", "conditions": "14 mg"}},
  "note": "pKi: −log10 of the molar value.",
  "data": [
    {"smiles": "C=C(C)[C@@H]1CCC(C)=C[C@H]1c1c(O)cc(CCCCC)cc1O", "note": "[CANNABIDIOL]", "values": [
      {"measurement": "half-life", "setting": "[1]", "result": 48, "unit": "h"},
      {"measurement": "half-life", "setting": "[2]", "result": 2, "unit": "h"},
      {"measurement": "pKi", "setting": "[3]", "result": 5.19},
      {"measurement": "degraded at 2 h", "setting": "[4]", "result": 98, "unit": "%"},
      {"measurement": "half-life", "setting": "[5]", "result": 31, "unit": "h"},
      {"measurement": "half-life", "setting": "[6]", "result": 2, "unit": "h"},
      {"measurement": "pKi", "setting": "[7]", "result": 5.57},
      {"measurement": "pKi", "setting": "[8]", "result": 5.44},
      {"measurement": "pKi", "setting": "[9]", "result": 5.43},
      {"measurement": "CAC", "setting": "[10]", "result": 12.5, "unit": "µM"},
      {"measurement": "pKi", "setting": "[11]", "result": 4.26},
      {"measurement": "pKi", "setting": "[12]", "result": 5.51},
      {"measurement": "Cmax", "setting": "[13]", "result": 11.1, "unit": "nM"},
      {"measurement": "Activity", "setting": "[14]", "result": 42, "unit": "%"},
      {"measurement": "Activity", "setting": "[15]", "result": "< 70", "unit": "%"},
      {"measurement": "k el at 1008 h", "setting": "[16]", "result": 0.000119, "unit": "s⁻¹"},
      {"measurement": "bioavailability", "setting": "[17]", "result": 13, "unit": "%"},
      {"measurement": "Cmax", "setting": "[18]", "result": 0.9, "unit": "nM"}
    ]}
  ]
}
